Results on one compound are retold here after paper PMC12521527, “In vivo self-assembled nano-PROTAC for the dual degradation of AR and HSP90 to overcome castration-resistant prostate cancer resistance” (Signal Transduction and Targeted Therapy, 2025).

Numbered stars: 1 amine (or outer) side, 2 acyl side, 3 side chain; on linkers, the order of the positions; unused ones are H or OH. Square brackets hold non-standard residues; d marks the D form. Peptide text beside a SMILES is read from it. * marks the point of attachment. X2 = CC1(C)C(=O)N(c2ccc(C#N)c(C(F)(F)F)c2)C(=S)N1c1ccc(C(=O)*)c(F)c1; X1 = O=C1CCC(N2C(=O)c3cccc(N(CC(=O)[*:2])[*:1])c3C2=O)C(=O)N1; EuK = O=C(O)CC[C@H](NC(=O)N[C@@H](CCCCN*)C(=O)O)C(=O)O; 2Nal = N[C@@H](Cc1ccc2ccccc2c1)C(=O)O

Data set [1] addresses CRBN protein (Homo sapiens, UniProt Q96SW2). Kind of data set: MST binding affinity, Psa-AR and CRBN protein. As to conditions: RED-NHS-labeled CRBN 400 nM, PBS-T, 22 °C, n = 3. From the text:
Fig. 3 Polynary nanocomposite (AR: Psa-AR: CRBN) formation. a Dose‒response curve for the binding interaction between Psa-AR and the AR protein; n = 3 per group. b Dose‒response curve for the binding interaction between Psa-AR and the CRBN protein; n = 3 per group. c Dose‒response curve for the binding interaction between the binary complex (Psa-AR: AR) and CRBN, n = 3 per group. d In vitro Psa-AR self-assembly, protein binding and degradation. e Representative 22Rv1 cell CLSM images of FITC-labeled Psa-AR assembly (green channel) interacting with HSP90 (red channel) and its colocalization analysis (1–1’). […] Scale bar: 10 μm.
MST (NanoTemper Technologies GmbH, Munich, Germany) was utilized to evaluate the binding affinity between Psa-AR and RED-NHS-labeled PSMA, AR, or CRBN proteins. The PSMA, AR, and CRBN proteins were labeled with the Protein Labeling Kit RED-NHS 2nd Generation (Amine Reactive). RED-PSMA, RED-AR, and RED-CRBN proteins were diluted to a final concentration of 400 nM with PBS-T buffer (0.05% Tween 20), where the fluorescence signals satisfied the typical detection limit of the Monolith NT.115 instrument (NanoTemper Technologies). The binding affinity between Psa-AR and the RED-NHS-labeled AR protein was assessed. […] Then, 10 µL of RED-CRBN was added to each sample to achieve a final concentration of 400 nM. […] The data were analyzed by NanoTemper analysis software.

Data set [2] concerns AR. As to the kind of experiment: Western blot AR degradation in 22Rv1 cells. In kind it is cell-based. How it is done:
(§1) All uncropped blots are presented in Supplementary Fig. 26. j, k Representative 22Rv1 cell CLSM images of the degradation of AR after incubation with FITC-labeled Psa-AR for 12 h and quantitative analysis, n = 3 per group. Scale bar: 10 μm. l, m Representative 22Rv1 cell CLSM images of the degradation of HSP90 after incubation with FITC-labeled Psa-AR for 12 h and quantitative analysis, n = 3 per group. Scale bar: 10 μm. n AR-V7 expression in 22Rv1 cells after treatment with PBS, P-AR (20 μM), Psa-AR (20 μM) or Psa-AR (20 μM) combined with MG132 (2 μM) for 48 h, as determined by western blotting. β-Actin was used as an internal reference. o Results of apoptosis in 22Rv1 cells treated with PBS, P-AR (20 μM), or Psa-AR (20 μM) for 48 h, as detected by flow cytometry.
(§2) The pretreated cells were resuspended in lysis buffer containing 50 mM Tris-HCl (pH 8.0), 150 mM NaCl, 1% (v/v) Triton X-100, and protease inhibitors. The protein concentration was determined via a BCA kit (Applygen). Each sample ([…]) was subjected to SDS‒PAGE and then transferred to a PVDF membrane. The blots were blocked in 5% (wt/v) blocking buffer. After washing three times with TBST buffer (10 mM TBS solution containing 0.1% (v/v) Tween-20), the blots were incubated with primary antibodies at 4 °C on a shaker for 16 h. After washing with TBST buffer three times, the blot was incubated with secondary antibodies at room temperature on a shaker for 2 h. After being washed three times with TBST buffer, the blots were subsequently scanned on a Typhoon Trio Variable Mode Imager.

Data set [3] addresses T1, AR (Homo sapiens, UniProt P10275, T878A).
T1 construct: endogenous in cells; host or cells: LNCaP
As to the kind of experiment: Western blot AR degradation in LNCaP cells. In kind it is cell-based. How it is done:
as §1, §2

For data set [4], the system named is 22Rv1 cells. As to the kind of experiment: Annexin V/PI apoptosis by flow cytometry. The class given is cell-based. As to conditions: 22Rv1, 20 μM, 48 h, n = 3. The method, then: as §1
The mark [5] stands for this setting: western blot, 22Rv1, 20 μM, 48 h.

T1 sequence (P10275 whole entry T878A): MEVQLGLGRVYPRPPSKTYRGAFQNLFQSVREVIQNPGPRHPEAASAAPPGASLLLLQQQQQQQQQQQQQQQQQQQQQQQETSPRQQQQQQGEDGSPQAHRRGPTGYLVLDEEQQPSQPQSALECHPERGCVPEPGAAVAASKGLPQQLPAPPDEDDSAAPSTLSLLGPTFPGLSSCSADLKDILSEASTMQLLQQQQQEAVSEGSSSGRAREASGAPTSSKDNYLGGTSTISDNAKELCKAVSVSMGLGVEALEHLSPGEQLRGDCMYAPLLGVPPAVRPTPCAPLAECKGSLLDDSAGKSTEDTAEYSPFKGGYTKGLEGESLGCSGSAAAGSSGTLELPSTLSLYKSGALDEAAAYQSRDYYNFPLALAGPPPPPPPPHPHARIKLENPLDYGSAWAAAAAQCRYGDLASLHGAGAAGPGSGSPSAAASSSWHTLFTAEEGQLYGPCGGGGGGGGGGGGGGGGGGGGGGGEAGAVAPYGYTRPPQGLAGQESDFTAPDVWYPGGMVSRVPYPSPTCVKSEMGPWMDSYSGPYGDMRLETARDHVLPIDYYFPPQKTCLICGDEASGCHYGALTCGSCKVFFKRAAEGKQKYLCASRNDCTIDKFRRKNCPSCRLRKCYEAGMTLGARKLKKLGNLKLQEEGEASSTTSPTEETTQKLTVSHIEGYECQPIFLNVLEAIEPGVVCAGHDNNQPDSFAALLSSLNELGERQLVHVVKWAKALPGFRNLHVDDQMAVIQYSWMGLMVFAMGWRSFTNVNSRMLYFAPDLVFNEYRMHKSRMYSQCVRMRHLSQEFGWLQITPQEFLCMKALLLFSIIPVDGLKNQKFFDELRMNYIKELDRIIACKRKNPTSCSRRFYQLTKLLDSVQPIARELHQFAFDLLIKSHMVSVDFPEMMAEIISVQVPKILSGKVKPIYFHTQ
T1 sequence (Q16531 whole entry, further chain): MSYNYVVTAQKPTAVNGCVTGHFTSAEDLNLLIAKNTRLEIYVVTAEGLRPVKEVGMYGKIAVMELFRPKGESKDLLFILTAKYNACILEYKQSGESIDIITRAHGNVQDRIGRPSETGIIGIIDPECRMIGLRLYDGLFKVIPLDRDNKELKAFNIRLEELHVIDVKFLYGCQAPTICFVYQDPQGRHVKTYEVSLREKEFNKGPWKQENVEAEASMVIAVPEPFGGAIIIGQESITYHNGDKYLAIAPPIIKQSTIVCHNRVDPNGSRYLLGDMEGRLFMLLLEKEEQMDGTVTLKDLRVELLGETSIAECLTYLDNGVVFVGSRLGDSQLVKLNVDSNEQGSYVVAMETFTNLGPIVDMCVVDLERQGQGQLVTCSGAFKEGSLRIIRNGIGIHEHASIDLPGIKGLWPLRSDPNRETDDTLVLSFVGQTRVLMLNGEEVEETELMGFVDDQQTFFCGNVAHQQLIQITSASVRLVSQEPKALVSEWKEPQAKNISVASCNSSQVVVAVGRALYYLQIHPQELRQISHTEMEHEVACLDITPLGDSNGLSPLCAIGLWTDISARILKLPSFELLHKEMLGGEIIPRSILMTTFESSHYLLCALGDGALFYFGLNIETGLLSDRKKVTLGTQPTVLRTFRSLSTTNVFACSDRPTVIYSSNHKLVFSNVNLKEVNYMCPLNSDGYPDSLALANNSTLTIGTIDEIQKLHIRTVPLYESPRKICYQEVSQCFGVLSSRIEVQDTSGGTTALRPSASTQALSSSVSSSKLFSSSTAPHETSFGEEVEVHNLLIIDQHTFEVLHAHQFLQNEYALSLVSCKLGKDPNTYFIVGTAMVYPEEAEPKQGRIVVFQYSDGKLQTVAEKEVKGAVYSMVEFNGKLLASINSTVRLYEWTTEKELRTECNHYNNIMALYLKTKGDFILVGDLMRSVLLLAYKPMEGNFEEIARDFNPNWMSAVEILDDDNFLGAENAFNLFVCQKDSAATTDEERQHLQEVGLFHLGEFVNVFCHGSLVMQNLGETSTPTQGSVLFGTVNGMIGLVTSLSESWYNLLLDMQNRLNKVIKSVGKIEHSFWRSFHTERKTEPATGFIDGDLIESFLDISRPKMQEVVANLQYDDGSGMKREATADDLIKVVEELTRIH
T1 sequence (Q96SW2 whole entry, further chain): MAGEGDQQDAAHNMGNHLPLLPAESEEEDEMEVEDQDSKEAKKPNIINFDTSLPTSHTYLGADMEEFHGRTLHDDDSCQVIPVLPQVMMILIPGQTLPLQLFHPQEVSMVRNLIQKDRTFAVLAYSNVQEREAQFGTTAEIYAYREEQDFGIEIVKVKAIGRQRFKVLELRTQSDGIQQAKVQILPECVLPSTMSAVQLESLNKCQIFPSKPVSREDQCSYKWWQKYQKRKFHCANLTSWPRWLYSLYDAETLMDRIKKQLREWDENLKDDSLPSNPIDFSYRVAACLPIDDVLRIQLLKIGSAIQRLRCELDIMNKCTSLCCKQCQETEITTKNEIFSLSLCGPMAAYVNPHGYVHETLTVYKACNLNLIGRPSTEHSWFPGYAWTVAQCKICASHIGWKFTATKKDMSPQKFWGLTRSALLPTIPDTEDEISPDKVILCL
CRBN protein, sequence (Q96SW2 whole entry): as the sequence (Q96SW2 whole entry, further chain) above

`CC1(C)C(=O)N(c2ccc(C#N)c(C(F)(F)F)c2)C(=S)N1c1ccc(C(=O)NCCCC[C@H](NC(=O)CNc2cccc3c2C(=O)N(C2CCC(=O)NC2=O)C3=O)C(=O)N[C@@H](CS)C(=O)N[C@@H](CCC(N)=O)C(=O)N[C@@H](Cc2ccc(O)cc2)C(=O)N[C@@H](CC(N)=O)C(=O)N[C@@H](CCC(N)=O)C(=O)N[C@@H](Cc2ccc(O)cc2)C(=O)N[C@@H](Cc2ccc(O)cc2)C(=O)N[C@@H](Cc2ccc3ccccc3c2)C(=O)NCCCC[C@H](NC(=O)N[C@@H](CCC(=O)O)C(=O)O)C(=O)O)c(F)c1` (stereo partly shown) [Psa-AR] (H-[X1]K(X2)CQYNQYY[2Nal]-EuK) showed an FTIR amide I peak without PSMA of 1660 cm⁻¹. In data set [1], the affinity, expressed as Kd, was 1.06 µM. Also, in data set [2] (22Rv1, 20 μM, 12–96 h), the “AR protein knockdown maintained within 96-h observation period” value is given as “over 99%”. Further, the DC50 in data set [2] (22Rv1 cell line, 1 to 100 μM, read-out: DC50 for AR protein degradation) stood at 9.45 µM. Further, in data set [2] (setting [5]), the “AR degradation compared with PBS controls” value worked out at 79% and the “enhancement of AR degradation over P-AR” value came out at 45%. This compound also gave an AR degradation rate in data set [3] (LNCaP cells, time-dependent evaluation) of 97%. Besides, the DC50 in data set [3] (read-out: DC50 for AR protein degradation, LNCaP cell line, 1 to 100 μM) turned out to be 11.4 µM. Moreover, in data set [3] (western blot, LNCaP, 20 μM, 48 h), the “superior AR degradation efficiency relative to P-AR” value was found to be 49%. For the same compound, in data set [4], the “total apoptotic cells (early and late phases)” value is 75%.
